Key:
[1] = biological target: T1, FGFR2 (Homo sapiens, UniProt P21802); assay: FGFR2 Biochemical Caliper Assay (KinEASE-TK kit); conditions: 0.07 nM FGFR2; compound incubated with protein 10 min, reaction 45 min at RT; read-out: FGFR2 Cliper IC50
T1 construct: purchased Carna 08-134
Experimental: Compounds of the present invention were tested in a FGFR1, FGFR2, and FGFR3 Biochemical Caliper Assay.
(§1) Enzyme activity was monitored using KinEASE-TK kit (CisBio, Cat.No. 62TK0PEC) according to manufacturer's instructions. […] Final enzyme concentration was 0.2 nM for FGFR1 and FGFR3, 0.07 nM for FGFR2. Compounds were prepared in 10 mM DMSO and serially diluted into 10 concentrations by 3-fold dilution. Prior to the initiation of the reaction by adding TK-substrate/ATP mixture, the compounds were incubated with protein for 10 min at RT. […] Plates were quenched by adding TK-antibody-Cryptate and Sa-XL665 mixture. After 60 min in the stop solution, read the signal on microplate reader (Molecular Devices, i3x), excitation of 320 nm and emission of 615 nm and 665 nm with a […]. IC50 values were calculated using Prism 7 (GraphPad).

[2] = biological target: T2, FGFR1 (Homo sapiens, UniProt P11362); assay: FGFR1 Biochemical Caliper Assay (KinEASE-TK kit); conditions: ratio FGFR1/FGFR2 of the biochemical assay
T2 construct: purchased Carna 08-133
T2 sequence (P11362 22-822): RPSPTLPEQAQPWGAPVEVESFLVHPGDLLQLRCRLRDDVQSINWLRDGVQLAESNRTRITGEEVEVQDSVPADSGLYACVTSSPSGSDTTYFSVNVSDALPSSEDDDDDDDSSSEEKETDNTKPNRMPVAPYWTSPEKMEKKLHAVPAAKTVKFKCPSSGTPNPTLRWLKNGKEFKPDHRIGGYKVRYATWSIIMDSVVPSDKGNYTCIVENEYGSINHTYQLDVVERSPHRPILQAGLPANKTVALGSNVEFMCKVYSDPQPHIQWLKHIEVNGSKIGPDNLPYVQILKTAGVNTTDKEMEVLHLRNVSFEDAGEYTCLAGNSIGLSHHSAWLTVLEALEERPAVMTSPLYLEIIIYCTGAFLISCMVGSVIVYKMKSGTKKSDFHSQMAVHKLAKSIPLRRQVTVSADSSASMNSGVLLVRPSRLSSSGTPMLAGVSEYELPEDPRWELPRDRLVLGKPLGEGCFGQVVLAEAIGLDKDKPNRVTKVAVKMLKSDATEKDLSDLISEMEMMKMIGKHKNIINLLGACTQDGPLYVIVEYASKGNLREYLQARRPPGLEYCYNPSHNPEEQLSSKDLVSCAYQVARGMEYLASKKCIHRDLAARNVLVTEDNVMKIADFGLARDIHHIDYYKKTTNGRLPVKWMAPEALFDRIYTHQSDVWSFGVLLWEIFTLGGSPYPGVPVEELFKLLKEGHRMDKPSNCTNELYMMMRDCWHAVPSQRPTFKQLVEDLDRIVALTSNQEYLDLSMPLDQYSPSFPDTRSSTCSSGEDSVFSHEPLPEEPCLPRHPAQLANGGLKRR
Experimental: as §1, with “Compounds of the present invention were tested in a FGFR1, FGFR2, and FGFR3 Biochemical Caliper Assay. Enzyme” for “Enzyme”

[3] = biological target: T3, FGFR3 (Homo sapiens, UniProt P22607); assay: FGFR3 Biochemical Caliper Assay (KinEASE-TK kit); conditions: ratio FGFR3/FGFR2 of the biochemical assay
T3 construct: purchased Carna 08-135
T3 sequence (P22607 23-806): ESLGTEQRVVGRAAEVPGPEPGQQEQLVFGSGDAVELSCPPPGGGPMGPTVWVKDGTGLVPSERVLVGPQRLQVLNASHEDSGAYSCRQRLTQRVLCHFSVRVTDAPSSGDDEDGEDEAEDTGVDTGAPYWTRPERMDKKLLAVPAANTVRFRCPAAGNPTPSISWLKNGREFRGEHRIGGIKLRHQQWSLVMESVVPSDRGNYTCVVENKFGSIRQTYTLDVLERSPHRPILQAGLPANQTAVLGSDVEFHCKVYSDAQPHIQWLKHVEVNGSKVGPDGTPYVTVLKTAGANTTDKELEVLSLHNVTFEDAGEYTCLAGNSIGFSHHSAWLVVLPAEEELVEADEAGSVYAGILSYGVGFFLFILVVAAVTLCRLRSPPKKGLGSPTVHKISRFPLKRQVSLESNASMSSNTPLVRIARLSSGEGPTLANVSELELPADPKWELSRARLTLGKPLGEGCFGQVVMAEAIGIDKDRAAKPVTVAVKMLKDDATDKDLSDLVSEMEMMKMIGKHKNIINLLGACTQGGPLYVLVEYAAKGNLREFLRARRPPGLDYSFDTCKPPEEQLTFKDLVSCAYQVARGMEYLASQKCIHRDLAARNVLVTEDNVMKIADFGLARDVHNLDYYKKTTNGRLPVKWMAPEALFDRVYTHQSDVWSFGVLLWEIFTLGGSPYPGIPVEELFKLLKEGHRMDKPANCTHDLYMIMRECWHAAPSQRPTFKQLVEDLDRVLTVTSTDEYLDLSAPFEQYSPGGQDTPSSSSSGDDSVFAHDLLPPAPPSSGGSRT
Experimental: as §1, with “Compounds of the present invention were tested in a FGFR1, FGFR2, and FGFR3 Biochemical Caliper Assay. Enzyme” for “Enzyme”

[4] = system: SNU16 cells; assay: SNU16 Cancer Cell Line Proliferation Assay (CellTiter-Glo); format: cell-based; conditions: Homo sapiens, SNU-16, 72 h
Experimental: Compounds of the present invention were also tested in a SNU16 Cancer Cell Line Proliferation Assay.
SNU16 cells were plated in 96-well clear bottom/white plate(Costar, Cat.No. 3610) at 5000 cells/well in 100 μl medium. Test compounds were prepared in a 10 mM DMSO stock solution and serially diluted into 9 concentrations by 3-fold dilution. 0.5 μl of each concentration of compound was added into the cell culture plates and DMSO as a control. The plates were incubated for 72 h at 37° C. and 5% CO2 incubator. 50 μl CellTiter-Glo reagent (Promega, G7572) was added into each well and then the plates were shaken gently for 10 min at room temperature. Luminescence was read on microplate reader (Molecular Devices, i3x), IC50 values were calculated using Prism 7 (GraphPad).

T1 sequence (P21802 22-821): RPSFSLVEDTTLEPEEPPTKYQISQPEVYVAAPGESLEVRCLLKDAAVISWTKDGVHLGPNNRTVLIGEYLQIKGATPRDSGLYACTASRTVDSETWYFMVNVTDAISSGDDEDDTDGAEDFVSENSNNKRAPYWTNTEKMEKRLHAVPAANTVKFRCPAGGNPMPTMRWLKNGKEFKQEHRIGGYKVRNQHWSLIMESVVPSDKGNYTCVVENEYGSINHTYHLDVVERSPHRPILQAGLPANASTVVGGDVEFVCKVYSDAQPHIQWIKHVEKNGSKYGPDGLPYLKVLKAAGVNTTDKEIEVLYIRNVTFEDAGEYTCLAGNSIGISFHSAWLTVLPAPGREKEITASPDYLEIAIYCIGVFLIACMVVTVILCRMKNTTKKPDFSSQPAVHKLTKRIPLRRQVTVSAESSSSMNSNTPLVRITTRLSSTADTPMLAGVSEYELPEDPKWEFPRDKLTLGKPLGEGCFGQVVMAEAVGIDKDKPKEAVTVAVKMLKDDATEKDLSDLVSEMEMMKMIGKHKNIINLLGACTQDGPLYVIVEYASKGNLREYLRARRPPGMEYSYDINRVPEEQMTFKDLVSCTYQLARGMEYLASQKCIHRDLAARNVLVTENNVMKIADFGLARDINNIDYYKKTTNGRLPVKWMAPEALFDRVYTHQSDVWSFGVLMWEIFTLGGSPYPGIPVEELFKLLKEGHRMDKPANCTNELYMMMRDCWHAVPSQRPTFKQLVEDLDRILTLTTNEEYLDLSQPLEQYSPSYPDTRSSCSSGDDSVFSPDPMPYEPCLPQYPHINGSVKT

Row | SMILES | IC50 [1] [nM] | IC50 [4] [nM] | Selectivity FGFR1/FGFR2 [2] | Selectivity FGFR3/FGFR2 [3]
1 | C=C(F)C(=O)Nc1ccc(-c2nn3ncnc(N)c3c2-c2ccc(C(=O)NCC(F)(F)F)c(OC)c2)c(C)c1 [Compound 101, 4-(4-amino-6-(4-(2-fluoroacrylamido)-2-methylphenyl)pyrazolo[5,1-f][1,2,4]triazin-5-yl)-2-methoxy-N-(2,2,2-trifluoroethyl)benzamide] | < 5 | ≤ 10 | A+ (Selectivity of FGFR1/FGFR2 greater or equal to 500) | B (Selectivity of FGFR3/FGFR2 less than 100 but greater than or equal to 25)
2 | C=C(F)C(=O)Nc1ccc(-c2nn3ncnc(N)c3c2-c2ccc(C(=O)NCC(F)(F)F)c(OC)c2)c(OC)c1 [Compound 102, 4-(4-amino-6-(4-(2-fluoroacrylamido)-2-methoxyphenyl)pyrazolo[5,1-f][1,2,4]triazin-5-yl)-2-methoxy-N-(2,2,2-trifluoroethyl)benzamide] | > 10 | ≤ 10 | B (Selectivity of FGFR1/FGFR2 less than 300 but greater than or equal to 200) | B (Selectivity of FGFR3/FGFR2 less than 100 but greater than or equal to 25)
3 | C=C(F)C(=O)Nc1ccc(-c2c(-c3ccc(C(=O)NC4CC4)c(OC)c3)c3c(N)ncc(C#N)c3n2C)cc1 [Compound 104, 4-(4-amino-7-cyano-2-(4-(2-fluoroacrylamido)phenyl)-1-methyl-1H-pyrrolo[3,2-c]pyridin-3-yl)-N-cyclopropyl-2-methoxybenzamide] | 5 to 10 | ≤ 10 | A+ (Selectivity of FGFR1/FGFR2 greater or equal to 500) | A+ (Selectivity of FGFR3/FGFR2 greater or equal to 150)
4 | C=CC(=O)Nc1ccc(-c2c(-c3ccc(C(=O)NC4CC4)c(OC)c3)c3c(N)ncc(C#N)c3n2C)cc1 [Compound 105] | < 5 | ≤ 10 | A+ (Selectivity of FGFR1/FGFR2 greater or equal to 500) | A (Selectivity of FGFR3/FGFR2 less than 150 but greater than or equal to 100)
5 | C=CC(=O)Nc1ccc(-c2c(-c3ccc(C(=O)NCC)c(OC)c3)c3c(N)ncc(C#N)c3n2C)cc1 [Compound 107, 4-(2-(4-acrylamidophenyl)-4-amino-7-cyano-1-methyl-1H-pyrrolo[3,2-c]pyridin-3-yl)-N-ethyl-2-methoxybenzamide] | < 5 | ≤ 10 | A+ (Selectivity of FGFR1/FGFR2 greater or equal to 500) | A (Selectivity of FGFR3/FGFR2 less than 150 but greater than or equal to 100)
6 | C=CC(=O)Nc1ccc(-c2c(-c3ccc(C(=O)NC(C)C)c(OC)c3)c3c(N)ncc(C#N)c3n2C)cc1 [Compound 108, 4-(2-(4-acrylamidophenyl)-4-amino-7-cyano-1-methyl-1H-pyrrolo[3,2-c]pyridin-3-yl)-N-isopropyl-2-methoxybenzamide] | < 5 | ≤ 10 | A+ (Selectivity of FGFR1/FGFR2 greater or equal to 500) | A (Selectivity of FGFR3/FGFR2 less than 150 but greater than or equal to 100)

More lines, main results first:

Row | IC50 [1] [nM] | IC50 [4] [nM] | SMILES | Selectivity FGFR1/FGFR2 [2] | Selectivity FGFR3/FGFR2 [3]
7 | < 5 | ≤ 10 | C=CC(=O)Nc1ccc(-c2c(-c3ccc(C(=O)NC4CCCC4)c(OC)c3)c3c(N)ncc(C#N)c3n2C)cc1 [Compound 109, 4-(2-(4-acrylamidophenyl)-4-amino-7-cyano-1-methyl-1H-pyrrolo[3,2-c]pyridin-3-yl)-N-cyclopentyl-2-methoxybenzamide] | A+ (Selectivity of FGFR1/FGFR2 greater or equal to 500) | B (Selectivity of FGFR3/FGFR2 less than 100 but greater than or equal to 25)
8 | 5 to 10 | 10 to 50 | C=CC(=O)Nc1ccc(-n2nc3c(=O)[nH]nc(N)c3c2-c2ccc(Oc3cccc(C)n3)c(OC)c2)cc1 [Compound 115] | C (Selectivity of FGFR1/FGFR2 less than 200 but greater than or equal to 100) | A+ (Selectivity of FGFR3/FGFR2 greater or equal to 150)
9 | < 5 | > 50 | C=CC(=O)Nc1ccc(-n2nc3c(=O)[nH]nc(N)c3c2-c2ccc(Oc3nccc(C)n3)c(OC)c2)cc1 [Compound 134, N-(4-(4-amino-3-(3-methoxy-4-((4-methylpyrimidin-2-yl)oxy)phenyl)-7-oxo-6,7-dihydro-2H-pyrazolo[3,4-d]pyridazin-2-yl)phenyl)acrylamide] | C (Selectivity of FGFR1/FGFR2 less than 200 but greater than or equal to 100) | A+ (Selectivity of FGFR3/FGFR2 greater or equal to 150)
10 | 5 to 10 | 10 to 50 | C=C(F)C(=O)Nc1ccc(-n2nc3c(=O)[nH]nc(N)c3c2-c2ccc(C(=O)NC3CCC3)c(OC)c2)cc1 [Compound 137, 4-(4-amino-2-(4-(2-fluoroacrylamido)phe-nyl)-7-oxo-6,7-dihydro-2H-pyrazolo[3,4-d]pyridazin-3-yl)-N-cyclobutyl-2-methoxybenzamide] | A+ (Selectivity of FGFR1/FGFR2 greater or equal to 500) | A+ (Selectivity of FGFR3/FGFR2 greater or equal to 150)
11 | < 5 | ≤ 10 | C=CC(=O)Nc1ccc(-c2c(-c3ccc(C(=O)NCC(F)(F)F)c(OC)c3)c3c(N)ncc(C#N)c3n2C)c(F)c1 [Compound 150, 4-(2-(4-acrylamido-2-fluorophenyl)-4-amino-7-cyano-1-methyl-1H-pyrrolo[3,2-c]pyridin-3-yl)-2-methoxy-N-(2,2,2-trifluoroethyl)benzamide] | A+ (Selectivity of FGFR1/FGFR2 greater or equal to 500) | B (Selectivity of FGFR3/FGFR2 less than 100 but greater than or equal to 25)
12 | 5 to 10 | ≤ 10 | C=C(F)C(=O)Nc1ccc(-c2c(-c3ccc(C(=O)NCC(F)(F)F)c(OC)c3)c3c(N)ncc(C#N)c3n2C)c(F)c1 [Compound 151, 4-(4-amino-7-cyano-2-(2-fluoro-4-(2-fluoroacrylamido)phenyl)-1-methyl-1H-pyrrolo [3,2-c]pyridin-3-yl)-2-methoxy-N-(2,2,2-trifluoroethyl)benzamide] | A+ (Selectivity of FGFR1/FGFR2 greater or equal to 500) | A+ (Selectivity of FGFR3/FGFR2 greater or equal to 150)
13 | < 5 | ≤ 10 | C=C(F)C(=O)Nc1ccc(-c2nn3ncnc(N)c3c2-c2ccc(C(=O)NC3CC3)c(OC)c2)c(F)c1 [Compound 153, 4-(4-amino-6-(2-fluoro-4-(2-fluoroacrylamido)phenyl)pyrazolo[5,1-f][1,2,4]triazin-5-yl)-N-cyclopropyl-2-methoxybenzamide] | A+ (Selectivity of FGFR1/FGFR2 greater or equal to 500) | A+ (Selectivity of FGFR3/FGFR2 greater or equal to 150)
14 | < 5 | ≤ 10 | C=CC(=O)Nc1ccc(-c2nn3ncnc(N)c3c2-c2ccc(C(=O)NC3CC3)c(OC)c2)c(OC)c1 [Compound 154, 4-(6-(4-acrylamido-2-methoxyphenyl)-4-aminopyrazolo[5,1-f][1,2,4]triazin-5-yl)-N-cyclopropyl-2-methoxybenzamide] | A+ (Selectivity of FGFR1/FGFR2 greater or equal to 500) | A (Selectivity of FGFR3/FGFR2 less than 150 but greater than or equal to 100)

From US20240383905A1, “FGFR INHIBITORS AND METHODS OF USE THEREOF” (3H PHARMACEUTICALS CO., LTD., priority 2021, published 2024)
